US11524975B2, “Amphiphilic compound having dendronic hydrophobic group and application thereof” (Industry-University Cooperation Foundation Hanyang …, priority 2017, dated 2022)
Like-named read-outs stand apart in the source and are kept apart here.

Columns and labels:
[1] = biological target: T1, β2AR (Homo sapiens, UniProt P07550); assay: β2AR stability in detergent, [3H]-dihydroalprenolol (DHA) binding; format: biochemical; details: CMC+0.2 wt %, 4 days at room temperature, FIG. 9a
T1 construct: made in house; host or cells: Sf9 insect cells, baculovirus
Procedure: A receptor was expressed in Sf9 insect cells infected with a baculovirus and solubilized in 1% DDM. The DDM-solubilized receptor was purified by alprenolol-sepharose in the presence of 0.01% cholesteryl succinate (CHS). β2AR purified by DDM was diluted with a buffer containing DDM or DTM (DTM-A6, DTM-A7 or DTM-E7) to reach the final concentration of CMC+0.2 wt %. β2AR solubilized in each compound was stored for 4 days at room temperature, and the ligand binding ability of the receptor was measured at regular intervals by incubating the receptor with 10 nM radioactive [^3H]-dihydroalprenolol (DHA) for 30 minutes at room temperature. The mixture was loaded into a G-50 column, and a supernatant was collected using a certain amount of binding buffer (supplemented with 20 mM HEPES pH 7.5, 100 mM NaCl, 0.5 mg/ml BSA). In addition, a 15 ml scintillation fluid was added. Receptor-binding [^3H]-DHA was measured using a scintillation counter (Beckman).

[2] = test system: MelBSt and MelBEc; assay: Galactoside-binding Trp→D2G FRET assay of detergent-solubilized MelB homologs; format: biochemical; details: 1.0% detergent, 60 minutes at 23° C., FIG. 8c
Procedure: In addition, RSO vesicles were prepared to be used for Trp→D^2G FRET assay. The RSO membrane vesicles were prepared by osmotic lysis from E. coli DW2 cells containing MelBSt or MelBEc. The RSO membrane vesicles mixed in a buffer (pH 7.5) containing 100 mM KPi and 100 mM NaCl at a protein concentration of 1 mg/ml were treated with 1.0% individual compounds (DDM, DTM-A5 and DTM-A6) for 60 minutes at 23° C., and ultracentrifuged using a TLA 120.2 rotor at 300,000 g or more for 45 minutes at 4° C. Supernatants were applied to a FRET (Trp→D^2G) experiment using an Amico-Bowman Series 2 (AB2) spectrofluorometer. The 2′-(N-dansyl)aminoalkyl-1-thio-β-D-galactopyranoside (D^2G, dansyl-galactoside) was obtained from Drs. Gerard Leblanc and H. Ronald Kaback. D^2G FRET signals of MelBSt and MelBEc were collected at 490 and 465 nm, respectively, upon excitation of Trp residues at 290 nm. 10 μM D^2G and excess melibiose or an equal amount of water (control) was added into an MelB solution at the time points of 1 minute and 2 minutes, respectively.

[3] = test system: T2, LHI-RC complex; assay: Structural stability of LHI-RC complex in detergent, UV-Vis absorbance at 875 nm; parameters: species or system R. capsulatus; details: 25° C., FIG. 5
T2 construct: His tag (implied only by Ni-NTA / HisSpinTrap purification); made in house; host or cells: R. capsulatus U43 [pUHTM86Bgl] membranes
Procedure: An experiment was conducted to evaluate the stabilization ability of DTMs on LHI-RC. The photosynthetic super assembly consists of a complex of light-harvesting complex I (LHI) and a reaction center (RC). The structural stability of LHI-RC was measured by a method of monitoring the structure of a protein for 20 days using UV-Vis spectroscopy. LHI-RC protein stability according to the concentration of an amphiphilic molecule was investigated using all DTMs of the present invention, and conventional amphiphilic molecules, such as DDM and OG, and the concentrations of an amphiphilic molecule used here were CMC+ 0.04 wt % (FIG. 5a) and CMC+ 0.2 wt % (FIG. 5b).
Specifically, LHI-RC stability was measured using a method disclosed in the paper published in 2008 by the inventors (P. S. Chae et al., ChemBioChem 2008, 9, 1706-1709.). […] A 10 mL aliquot of the solution of the frozen R. capsulatus membrane was homogenized using a glass homogenizer, and incubated with gentle stirring at 32° C. for 30 minutes. The homogenized membrane was treated with 1.0 wt % DDM for 30 minutes at 32° C. […] Protein stability was measured at regular intervals during the incubation by measuring UV-Vis spectra of the samples in the range of 650 to 950 nm. Protein integrity was evaluated by monitoring absorbance (A875) at 875 nm.

[4] = Hydrodynamic radius of micelles by dynamic light scattering (DLS); format: physicochemical; details: 0.5 wt % detergent concentration
Procedure: A method of measuring the radius of a micelle is not particularly limited, but may be a method well known in the art, for example, dynamic light scattering (DLS).
(§1) To identify the properties of DTMs synthesized according to the synthetic methods of Examples 1 and 2, the molecular weights (M.W.) and critical micellar concentrations (CMCs) of DTMs, and hydrodynamic radii (Rh) of formed micelles were measured.
(§2) Specifically, the CMCs were measured using hydrophobic fluorescence staining and diphenylhexatriene (DPH), and the hydrodynamic radii (Rh) of the micelles formed by each formulation were measured by dynamic light scattering (DLS).

[5] = Critical micelle concentration by hydrophobic fluorescence staining with diphenylhexatriene (DPH); format: physicochemical
Procedure: A method of measuring CMC is not particularly limited, and may be a method widely known in the art, for example, fluorescent staining using diphenylhexatriene (DPH).
as §1, §2

[6] = biological target: T3, β2AR-Gs complex (Homo sapiens, UniProt P07550); details: DDM-purified complex, previous study; cited from earlier work
T3 construct: made in house; host or cells: β2AR: Sf9 insect cells

[7] = biological target: T4, MelBSt (melibiose permease) (Salmonella typhimurium, UniProt P30878); details: 1.5 wt % detergent, 90 minutes
T4 construct: made in house; host or cells: E. coli DW2 (ΔmelB, ΔlacZY), plasmid pK95ΔAHB/WT MelBSt/CH10
Procedure: Specifically, Salmonella typhimurium MelBSt (melibiose permease) having a 10-His tag at the C-terminus was expressed in E. coli DW2 cells (ΔmelB and ΔlacZY) using a pK95ΔAHB/WT MelBSt/CH10 plasmid. Cell growth and membrane preparation were carried out according to the methods disclosed in the paper written by A. S. Ethayathulla et al. (Nat. Commun. 2014, 5, 3009). A protein assay was performed using a Micro BCA kit (Thermo Scientific, Rockford, Ill.). MelBSt stability in DTMs or DDM was evaluated using the protocol disclosed in Nat. Methods 2010, 7, 1003-1008, written by P. S. Chae et al. A MelBSt-containing membrane sample (the final protein concentration was 10 mg/mL) was incubated in a solubilization buffer containing 1.5% (w/v) DDM or DTM (20 mM sodium phosphate, pH 7.5, 200 mM NaCl, 10% glycerol and 20 mM melibiose) at four different temperatures (0, 45, 55 and 65° C.) for 90 minutes. To remove an insoluble material, ultracentrifugation was performed using a Beckman Optima™ MAX ultracentrifuge equipped with a TLA-100 rotor at 355,590 g and 4° C. for 45 minutes. […] The loaded samples were analyzed by SDS-15% PAGE, and then visualized by immunoblotting with a Penta-His-HRP antibody (Qiagen, Germantown, Md.).

[8] = biological target: T3, β2AR-Gs complex; details: DDM-purified complex, previous study; cited from earlier work; remark: listed apart in the source
[9] = biological target: T3, β2AR-Gs complex; assay: Negative stain EM analysis of β2AR-Gs complex; details: FIG. 11
Procedure: A β2AR-Gs protein complex was prepared for electron microscopy using a conventional negative staining protocol, and imaged at room temperature using a Tecnai T12 electron microscope operated at 120 kV according to a low-dose procedure. Images were recorded at a magnification of 71,138× and a defocus value of approximately ˜1.1 μm on a Gatan US4000 CCD camera. All images were binned (2×2 pixels) to obtain a pixel size of 4.16 Å at a specimen level. Particles were manually […] using e2boxer (part of the EMAN2 software suite). 2D reference-free alignment and classification of particle projections were performed using ISAC. 124,279 projections of β2AR-Gs were subjected to ISAC producing 131 classes consistent in two-way matching and 10,000 particle projections.

[10] = biological target: T3, β2AR-Gs complex; assay: Stability of β2AR-Gs complex by analytical gel filtration (SEC); details: complex purified in detergent, compound-free running buffer, 3 and 15-day incubation, FIG. 9b
Procedure: 100 μM β2AR solubilized in 0.1% DDM was mixed with 120 μM Gs heterotrimer for 30 minutes at room temperature. 0.5 unit of apyrase (NEB) and 2 mM MgCl2 was added to facilitate complex formation, followed by further incubation for one hour. Subsequently, 1% DTM-A6 was added such that the final concentration reached 0.8%, and the sample was further incubated for 30 minutes to change DDM to DTM-A6. The protein solution was loaded into a M1 Flag column, washed with a series of buffers with different molar ratios of 0.1% DDM buffer to 0.5% DTM-A6 buffer to completely change DDM to DTM-A6, and the protein was finally eluted with 0.05% (70×CMC) DTM-A6 buffer. Preparative gel filtration was performed to purify the β2AR-Gs complex with a running buffer (20 mM HEPES pH 7.5, 100 mM NaCl, 0.005% DTM-A6, 1 mM BI, […]). To measure the stability of the β2AR-Gs complex in DTM-A6, analytical gel filtrations were performed using the running buffer as above, but after 3 and 15-day incubation, performed without DTM-A6 (compound-free condition).

[11] = DPH fluorescence staining, aqueous solution

CCCCCCCCCCCCO[C@@H]1O[C@H](CO)[C@@H](O[C@H]2O[C@H](CO)[C@@H](O)[C@H](O)[C@H]2O)[C@H](O)[C@H]1O [DDM, n-dodecyl-β-D-maltopyranoside]
long-term β2AR receptor activity [1]: rapid loss of activity over time
maintenance of MelB protein function (galactoside binding) of two homologs [2]: only one of the two homologs
LHI-RC protein stability when concentration increases from CMC+0.04 wt % to CMC+0.2 wt % [3]: protein stability decreases
R2 (nm), detergent hydrodynamic radius [4]: 3.4 ± 0.0 nm
CMC [5]: 170 µM
CMC [5, 11]: 170 µM
CMC (wt %) [5, 11]: 0.0087 wt %
homogeneity of β2AR-Gs complex particles (negative stain EM) [6]: aggregation of particles
MelBst solubilization from the membrane ([7]; 0° C. and 45° C.): stably solubilized
MelBst protein extraction efficiency ([7]; 0° C.): higher protein extraction efficiency than DTMs
MelBst solubilization from the membrane ([7]; 65° C.): did not occur
integrity of β2AR-Gs complex [8]: significant dissociation between the receptor and Gs protein even after 2 day-incubation

CCCCCCCCO[C@@H]1O[C@H](CO)[C@@H](O)[C@H](O)[C@H]1O [OG, n-octyl-β-D-glucopyranoside]
LHI-RC protein stability when concentration increases from CMC+0.04 wt % to CMC+0.2 wt % [3]: protein stability decreases

CCCCCCC(CCCCCC)COCC(COCC(CCCCCC)CCCCCC)COCC(CO[C@@H]1OC(CO)[C@@H](O[C@H]2OC(CO)[C@@H](O)C(O)C2O)C(O)C1O)(CO[C@@H]1OC(CO)[C@@H](O[C@H]2OC(CO)[C@@H](O)C(O)C2O)C(O)C1O)CO[C@@H]1OC(CO)[C@H](O[C@H]2OC(CO)[C@@H](O)C(O)C2O)C(O)C1O (stereo partly drawn) [DTM-A6]
long-term β2AR receptor activity [1]: consistently maintained
maintenance of MelB protein function (galactoside binding) of two homologs [2]: maintain protein function
homogeneity of β2AR-Gs complex particles (negative stain EM) [9]: highly homogeneous
R2 (nm), detergent hydrodynamic radius [4]: 3.7 ± 0.0 nm
CMC [5, 11]: ~10 µM
CMC (wt %) [5, 11]: ~0.0015 wt %
MelBst solubilization from the membrane ([7]; 55° C.): most effectively solubilized
integrity of β2AR-Gs complex (SEC) [10]: continuously maintains its integrity as a complex for 15 days
